According to article PMC5613062 (Investigational New Drugs, 2017):

Legend:
[1] = Phase I safety/tolerability, DLT and MTD: selumetinib + erlotinib 100 mg orally QD in patients with advanced solid tumors
[2] = parameters: method as in earlier work; conditions: Minipig; ref IB; cited from earlier work
[3] = Pharmacokinetics alone and in combination, selumetinib + erlotinib arm
Protocol: PK parameters were derived using non-compartmental analysis. Cmax and tmax were determined by visual inspection of the plasma concentration-time profiles. AUC(0–12) was calculated by the linear trapezoidal rule. Where more than one maximum occurred, the reported value was assigned to the first occurrence.

[4] = parameters: method as in protocol D1532C00004; conditions: protocol rationale for QD dosing; ref protocol D1532C00004; cited from earlier work

SMILES: Cn1cnc2c(F)c(Nc3ccc(Br)cc3Cl)c(C(=O)NOCCO)cc21 [Selumetinib]
- protocol-defined MTD of selumetinib plus erlotinib (part A) ([1]; part A dose escalation, later not tolerated in part B): 50 mg BID
- selumetinib dose recommended for future phase II studies ([1]; plus erlotinib 100 mg QD): 100 mg QD
- MTD of selumetinib in combination with erlotinib ([1]; with erlotinib 100 mg QD): 100 mg QD
- Protein binding [2]: 93.7%
- Cmax ([3]; geometric mean (% CV), dosed alone, selumetinib 50 mg cohort (N = 14), erlotinib 100 mg QD): 926.5 (69.10) ng/mL
- Cmax ([3]; geometric mean (% CV), dosed in combination, selumetinib 50 mg BID (N = 12) + erlotinib 100 mg QD): 1334 (51.16) ng/mL
- Cmax ([3]; geometric mean, QD cohorts, in combination, selumetinib 50 mg (N = 6) + erlotinib 100 mg QD): 942 ng/mL
- tmax ([3]; human, plasma, oral): 1.25 h
- AUC(0-t) ([3]; human, plasma, oral, 100 mg, AUC(0–8), geometric mean, QD cohorts, dosed alone, selumetinib 100 mg cohort (N = 6), erlotinib 100 mg QD): 4400 ng·h/mL
- AUC(0-t) ([3]; human, plasma, oral, 100 mg, AUC(0–12), geometric mean, QD cohorts, dosed alone, selumetinib 100 mg cohort (N = 6), erlotinib 100 mg QD): 5000 ng·h/mL
- Cmax ([3]; human, plasma, oral, 100 mg, Cmax, geometric mean, QD cohorts, dosed alone, selumetinib 100 mg cohort (N = 6), erlotinib 100 mg QD): 1800 ng/mL
- AUC(0-t) ([3]; human, plasma, oral, AUC(0–8), geometric mean (% CV), dosed alone, selumetinib 50 mg cohort (N = 14), erlotinib 100 mg QD): 2280 ng·h/mL
- AUC(0-t) ([3]; human, plasma, oral, AUC(0–8), geometric mean (% CV), dosed alone, selumetinib 75 mg cohort (N = 6), erlotinib 100 mg QD): 2860 ng·h/mL
- AUC(0-t) ([3]; human, plasma, oral, AUC(0–8), geometric mean (% CV), dosed in combination, selumetinib 50 mg BID (N = 12) + erlotinib 100 mg QD): 3640 ng·h/mL
- AUC(0-t) ([3]; human, plasma, oral, AUC(0–8), geometric mean (% CV), dosed in combination, selumetinib 75 mg BID (N = 6) + erlotinib 100 mg QD): 4350 ng·h/mL
- AUC(0-t) ([3]; human, plasma, oral, AUC(0–8), geometric mean, QD cohorts, dosed alone, selumetinib 50 mg cohort (N = 7), erlotinib 100 mg QD): 1900 ng·h/mL
- AUC(0-t) ([3]; human, plasma, oral, AUC(0–8), geometric mean, QD cohorts, dosed alone, selumetinib 150 mg cohort (N = 13), erlotinib 100 mg QD): 6780 ng·h/mL
- AUC(0-t) ([3]; human, plasma, oral, AUC(0–8), geometric mean, QD cohorts, in combination, selumetinib 50 mg (N = 6) + erlotinib 100 mg QD): 2600 ng·h/mL
- AUC(0-t) ([3]; human, plasma, oral, AUC(0–8), geometric mean, QD cohorts, in combination, selumetinib 100 mg (N = 6) + erlotinib 100 mg QD): 7070 ng·h/mL
- AUC(0-t) ([3]; human, plasma, oral, AUC(0–8), geometric mean, QD cohorts, in combination, selumetinib 150 mg (N = 12) + erlotinib 100 mg QD): 9190 ng·h/mL
- AUC(0-t) ([3]; human, plasma, oral, AUC(0–12), geometric mean (% CV), dosed alone, selumetinib 50 mg cohort (N = 14), erlotinib 100 mg QD): 2700 ng·h/mL
- AUC(0-t) ([3]; human, plasma, oral, AUC(0–12), geometric mean (% CV), dosed alone, selumetinib 75 mg cohort (N = 6), erlotinib 100 mg QD): 3200 ng·h/mL
- AUC(0-t) ([3]; human, plasma, oral, AUC(0–12), geometric mean (% CV), dosed in combination, selumetinib 50 mg BID (N = 12) + erlotinib 100 mg QD): 4010 ng·h/mL
- AUC(0-t) ([3]; human, plasma, oral, AUC(0–12), geometric mean (% CV), dosed in combination, selumetinib 75 mg BID (N = 6) + erlotinib 100 mg QD): 4830 ng·h/mL
- AUC(0-t) ([3]; human, plasma, oral, AUC(0–12), geometric mean, QD cohorts, dosed alone, selumetinib 50 mg cohort (N = 7), erlotinib 100 mg QD): 2130 ng·h/mL
- AUC(0-t) ([3]; human, plasma, oral, AUC(0–12), geometric mean, QD cohorts, dosed alone, selumetinib 150 mg cohort (N = 13), erlotinib 100 mg QD): 7740 ng·h/mL
- AUC(0-t) ([3]; human, plasma, oral, AUC(0–12), geometric mean, QD cohorts, in combination, selumetinib 100 mg (N = 6) + erlotinib 100 mg QD): 7760 ng·h/mL
- AUC(0-t) ([3]; human, plasma, oral, AUC(0–12), geometric mean, QD cohorts, in combination, selumetinib 150 mg (N = 12) + erlotinib 100 mg QD): 10500 ng·h/mL
- Cmax ([3]; human, plasma, oral, Cmax, geometric mean (% CV), dosed alone, selumetinib 75 mg cohort (N = 6), erlotinib 100 mg QD): 1050 ng/mL
- Cmax ([3]; human, plasma, oral, Cmax, geometric mean (% CV), dosed in combination, selumetinib 75 mg BID (N = 6) + erlotinib 100 mg QD): 1660 ng/mL
- Cmax ([3]; human, plasma, oral, Cmax, geometric mean, QD cohorts, dosed alone, selumetinib 50 mg cohort (N = 7), erlotinib 100 mg QD): 683 ng/mL
- Cmax ([3]; human, plasma, oral, Cmax, geometric mean, QD cohorts, dosed alone, selumetinib 150 mg cohort (N = 13), erlotinib 100 mg QD): 2450 ng/mL
- Cmax ([3]; human, plasma, oral, Cmax, geometric mean, QD cohorts, in combination, selumetinib 100 mg (N = 6) + erlotinib 100 mg QD): 2600 ng/mL
- Cmax ([3]; human, plasma, oral, Cmax, geometric mean, QD cohorts, in combination, selumetinib 150 mg (N = 12) + erlotinib 100 mg QD): 2810 ng/mL
- half-life [4]: ~ 6 hours
